The values below come from publication PMC4249368 (Antimicrobial Agents and Chemotherapy, 2014).

Assay [1] deals with MSSA ATCC 25923. On the procedure:
MSSA ATCC 25923 was purchased from the American Type Culture Collection (Manassas, VA). Mueller-Hinton broth (MHB; Bacto Laboratories Pty. Ltd.) was used to grow MSSA for determination of in vitro antibacterial activity in the presence and absence of 50% human serum (Life Technologies Australia, Melbourne, Australia) and time-kill assays. Luria-Bertani (LB) medium (Difco) and MHB adjusted with Ca^2+ (25 mg/liter) and Mg^2+ (12.5 mg/liter) (CA-MHB) were used for bacterial growth in the membrane depolarization assay and TEM, respectively. The phospholipids used for SPR analysis, 1-palmitoyl-2-oleoyl-sn-glycero-3-phosphoglycerol (POPG), 1-palmitoyl-2-oleoyl-sn-glycero-3-phosphocholine (POPC), and 1-palmitoyl-2-oleoyl-sn-glycero-3-phosphoethanolamine (POPE), were purchased from Auspep Pty. Ltd. (Melbourne, Australia).
MICs against MSSA ATCC 25923 were measured by broth microdilution according to the Clinical and Laboratory Standards Institute (CLSI) M7-A7 methodology ([30]). Briefly, serial 2-fold dilutions of each antibiotic were added into Costar nontreated polystyrene 96-well plates, and each well was inoculated with 50 μl of MSSA in MHB to a final concentration of approximately 5 × 10^5 CFU/ml. […] The dilution representing the MIC and two of the more and less concentrated dilutions were plated out onto Trypticase soy agar plates and enumerated to determine viable CFU/ml ([31]).

The nature of assay [2]: SPR binding to lipid bilayers on Biacore L1 chip. The following applies: 10 μM, normalized to molecular weight and RULipid, Fig. 3B, n = 3. How it is done:
Lipid stock solutions were prepared in chloroform and mixed at the described mass composition of POPC, POPC/POPG (8:2, wt/wt) and POPC/POPE (8:2, wt/wt) ([33]), and the chloroform was evaporated as previously described ([34]). The lipids were resuspended in 1 ml of filtered (0.22-μm pore size) running buffer (phosphate-buffered saline [PBS]; pH 7.3) and then sonicated for 25 min in 5-min intervals. Small unilamellar vesicles (SUVs) were prepared by extrusion through a polycarbonate filter with a 50-nm pore diameter ([35]).
SPR experiments were carried out with a Biacore T200 system (GE Health, Australia) using a Biacore vesicle capture (L1) sensor chip, which has lipophilic groups covalently attached to carboxymethylated dextran that facilitates direct lipid bilayer deposition ([34], [36]). All measurements were undertaken at a temperature of 25°C to maintain the lipid bilayer fluidity ([34]). SUVs at a total lipid concentration of 0.5 mg/ml were immediately passed across the chip surface for 60 min at a low flow rate of 2 μl/min, following three 30-s injections of 20 mM 3-cholamidopropyl-dimethylammonio-1-propane sulfonate (CHAPS) solution at a high flow rate of 30 μl/min to completely remove the captured vesicles from the sensor chip. To remove any multilamellar structures from the lipid surface and to stabilize the baseline, 10 mM NaOH was injected for 1 min at 50 μl/min. The coverage extent of the surface was later determined by a 5-min injection of 0.1 mg/ml bovine serum albumin (BSA) at a flow rate of 10 μl/min.
The antibiotics were serially diluted in running buffer and then injected sequentially from the lowest (0.01 μM) to the highest (10 μM) concentration at a flow rate of 20 μl/min for 180 s, followed by a dissociation of 300 s and a 1-min regeneration with 10 mM HCl at a flow rate of 10 μl/min. SPR experiments were performed in triplicate. The actual amount of antibiotic bound to each lipid bilayer was corrected by subtraction of the bulk refractive index difference (buffer control) and then normalized by dividing the antibiotic-bound resonance units (RUBound) obtained in the SPR sensorgrams (see Fig. 3A, below) by the corresponding antibiotic molecular weight and the resonance units of the individual lipid vesicle captured on the chip surface (RULipid) (see Fig. S1 in the supplemental material) by using the following equation: normalized antibiotic bound = (10^3 × RUBound)/(molecular weight × RULipid). Normalization against molecular weight and RULipid was necessary, as SPR units are mass dependent and RULipid values vary according to lipid type ([37]).

Assay [3] deals with MSSA ATCC 25923. As to the kind of experiment: Membrane depolarization assay with DiSC3(5). It is filed as cell-based, Staphylococcus aureus. Particulars: 30 min treatment; for membrane depolarization (result in words): 0.1 to 30 μM, Fig. 4, n = 3. On the procedure:
Antibiotic-induced bacterial cytoplasmic membrane depolarization was determined by using the fluorescent dye 3,3-dipropylthiacarbocyanine [DiSC3(5); Sigma-Aldrich, Australia] as previously described ([38]) with a high-throughput modification. Briefly, mid-logarithmic-phase MSSA ATCC 25923 cells were collected by centrifugation (5,000 × rpm, 10 min), washed once and diluted to approximately 5 × 10^7 CFU/ml in buffer (5 mM HEPES, 5 mM glucose; pH 7.2). The cell suspension was incubated with 0.4 μM DiSC3(5) until dye uptake was maximal, as indicated by a stable reduction in fluorescence of assay medium. KCl at 100 mM was added to equilibrate the cytoplasmic and external K^+ concentrations. A 90-μl aliquot of cell suspension was transferred into an Optiplate 96-well white microplate (PerkinElmer Corp., Australia), and 10 μl of antibiotic was added, to yield a series of solutions ranging from 0.1 to 30 μM. A blank with only cell suspension and dye was used for background subtraction. The fluorescence intensity was monitored in real time by using a BMG Labtech PolarStar Omega multimode reader fitted with 620-10 and 665-10 excitation and emission filters, respectively, at an excitation wavelength of 622 nm and an emission wavelength of 670 nm. The membrane depolarization assays were performed in triplicate, and the fluorescence leakage (FL) was defined by the following equation: FL = (FF − FB) − (FI − FB). Here, FF was the final fluorescence intensity in assay medium after 30 min of treatment with antibiotic, FI was the initial fluorescence intensity of the cell suspension, and FB was the fluorescence intensity of the blank.

Details of assay [4]: method as in PMID 23872123, PMID 9791177, PMID 16531990. Particulars: Lipid II pyrophosphate moiety; cited from earlier work.
Details of assay [5]: method as in PMID 23872123, PMID 9791177, PMID 16531990. Particulars: phospholipid bilayers; cited from earlier work.
The test system of assay [6] is MSSA ATCC 25923. How it is done:
MICs against MSSA ATCC 25923 were measured by broth microdilution according to the Clinical and Laboratory Standards Institute (CLSI) M7-A7 methodology ([30]). Briefly, serial 2-fold dilutions of each antibiotic were added into Costar nontreated polystyrene 96-well plates, and each well was inoculated with 50 μl of MSSA in MHB to a final concentration of approximately 5 × 10^5 CFU/ml. […] The dilution representing the MIC and two of the more and less concentrated dilutions were plated out onto Trypticase soy agar plates and enumerated to determine viable CFU/ml ([31]). […]
25923 in MHB media in the presence and absence of Human serum (10% and 50%) in
Corning NonTC microtitre plates (CLS3370)
a The MBCs were determined by plating out the clear wells onto an agar plate and were incubated at
37°C overnight. Each colony represents one viable bacterium. […]
The source holds these as a separate data set.

Where [7] appears, read: MHB, broth microdilution CLSI M7-A7, ~5 × 10^5 CFU/ml, 24 h, 37°C, Costar nontreated polystyrene 96-well plates.

Like-named read-outs stand apart in the source and are kept apart here. No end group written: not given here.

For the substance GLFDVIKKVASVIGGL-NH2 [citropin 1.1], in assay [1] (ATCC 25923, 24 h), the MIC (usually the lowest concentration that inhibits growth of the organism) was found to be 32 µg/mL.
For the substance nisin, the “normalized antibiotic bound to the three lipid bilayers (result in words)” value in assay [2] is on record as “no binding to either anionic or zwitterionic phospholipid bilayers”. In assay [3], the “membrane depolarization (result in words)” value was “dramatic membrane depolarization at the MIC and above”. The “concentration at which membrane depolarization occurs” value in assay [3] (DiSC3(5), normalized to citropin 1.1 at 10 μM, ramoplanin 3× MIC gives similar extent as […] MIC nisin) worked out at 0.25 × MIC. For the same substance, the values for the dissociation constant Kd in assay [4] and in assay [5] were 0.01 µM and 100 µM, respectively. Moreover, the MIC in assay [1] (setting [7]) was determined as 32 µg/mL.
As to teicoplanin, in assay [2], the “normalized antibiotic bound to the three lipid bilayers (result in words)” value is “bound preferentially to the anionic membrane over zwitterionic membranes”. Further, in assay [3], the “membrane depolarization (result in words)” value is “measurable but minor fluorescence leakage at concentrations significantly higher than the MIC”. Besides, the “MBC, 10% Human serum” value in assay [6] (Table S1, MHB with 10% human serum) turned out to be 0.25 µg/mL. For the same substance, the “MBC, 50% Human serum” value in assay [6] (Table S1, MHB with 50% human serum) was determined as 0.5 µg/mL. For the same substance, the “MBC, MHB” value in assay [6] (Table S1, MHB without serum, clear wells plated onto agar, 37°C overnight) was determined as 4 µg/mL. For the same substance, the MIC in assay [1] (setting [7]) stood at 1 µg/mL. Besides, in assay [1] (Table S1, MHB without serum, Corning NonTC microtitre plates (CLS3370)), the “MIC, MHB” value turned out to be 2 µg/mL.
